# Experimental data: patent US5102786A, “Biological diagnostic assay system” (PB Diagnostic Systems, Inc., priority 1987, dated 1992)
# Experiments:
# [1] = tested on: B-phycoerythrin; test: Fluorescent emission of B-phycoerythrin as a function of PNS and ANS; conditions: for effect on fluorescence emission of B-phycoerythrin in solution (in words): 0.125-0.50% agent
# Protocol: (§1) The fluorescent emissions of B- and R-phycoerythrin were studied as a function of PNS and 8-anilino-1-naphthalene sulfonic acid (ANS). The experiments were conducted with solutions of the phycoerythrin (1.7×10^-10 M) in HEPES buffer containing varying amounts of PNS and ANS. The phycoerythrins were excited at 560 nm and their emissions measured at 575 nm.
# [2] = tested on: R-phycoerythrin; test: Fluorescent emission of R-phycoerythrin as a function of PNS and ANS; conditions: for effect on fluorescence emission of R-phycoerythrin in solution (in words): 0.125-0.50% agent
# Protocol: as §1
# [3] = molecular target: Human Serum Albumin (HSA) (Homo sapiens, UniProt P02768); test: Displacement of sulforhodamine 101 from human serum albumin (Centricon 30 filtration, absorbance 586 nm); format: binding
# Protocol: Two sets of aqueous solutions, 1.05×10^-5 M in sulforhodamine 101, were prepared in HEPES buffer with varying amounts of HSA.
# [4] = tested on: plasma proteins; test: Displacement of a theophylline-rhodamine conjugate from plasma proteins (Centricon 30 filtration, 500-600 nm); format: binding, human
# Text: The solutions were centrifuged through a Centricon 30 filter at 5000 g and the filtrates were scanned on a Perkin Elmer λ9 Spectrophotometer at 500-600 nm.
# [5] = molecular target: T1, HSA (Homo sapiens, UniProt P02768); test: Displacement of fluorescein from HSA (Centricon 30 filtration, 490 nm)
# Protocol: (§2) Experiments were carried out with fluorescein and a fluorescein-theophylline conjugate, respectively, dissolved in HEPES buffer and containing various amounts of HSA. […] The solutions were centrifuged through a Centricon 30 filter at 5000 g and the filtrates were scanned at 490 nm.
# [6] = molecular target: T1, HSA; test: Displacement of a fluorescein-theophylline conjugate from HSA (Centricon 30 filtration, 490 nm); format: binding; set-up: CONJUGATE (free conjugate in filtrate): unit not given here; conditions: 0.2% PNS
# Protocol: as §2
# [7] = molecular target: T2, plasma proteins (Homo sapiens, UniProt P02768); test: in vitro; format: binding
# T2 construct: Experiments were conducted with a set of plasma solutions in HEPES buffer; from tissue; host or cells: plasma
# Protocol: Experiments were conducted with a set of plasma solutions in HEPES buffer containing ^14 C-labeled phenytoin (9.3×10^-5 M) and varying amounts of PNS.
# [8] = Solubility of PNS in water; format: physicochemical
# [9] = tested on: plasma proteins; test: Displacement of phenobarbital from plasma protein (filtration through Centricon PM 10, scintillation counting)
# [10] = as above; conditions: human, plasma
# [11] = 0.125% PNS or ANS, excited at 560 nm, emission 575 nm, HEPES buffer
# Chain of Human Serum Albumin (HSA) (P02768 25-609): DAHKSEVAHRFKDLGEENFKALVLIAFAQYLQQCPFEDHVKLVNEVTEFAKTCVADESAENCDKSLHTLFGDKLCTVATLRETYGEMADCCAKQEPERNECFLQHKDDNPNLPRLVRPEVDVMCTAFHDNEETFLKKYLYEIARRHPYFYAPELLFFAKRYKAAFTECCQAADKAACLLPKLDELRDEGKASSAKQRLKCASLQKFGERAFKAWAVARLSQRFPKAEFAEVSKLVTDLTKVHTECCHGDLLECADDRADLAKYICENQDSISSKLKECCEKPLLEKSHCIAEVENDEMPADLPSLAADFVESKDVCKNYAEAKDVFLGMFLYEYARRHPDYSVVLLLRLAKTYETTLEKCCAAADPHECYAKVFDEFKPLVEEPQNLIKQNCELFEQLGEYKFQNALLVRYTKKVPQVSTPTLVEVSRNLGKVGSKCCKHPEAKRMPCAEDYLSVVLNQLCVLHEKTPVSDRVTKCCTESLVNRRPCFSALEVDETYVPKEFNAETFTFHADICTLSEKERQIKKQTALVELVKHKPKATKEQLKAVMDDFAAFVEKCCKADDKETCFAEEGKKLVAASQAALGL
# T1 sequence (P02768 25-609): as above
# T2 sequence (P02768 25-609): as above
structure (smiles),measurement,setting,value
"O=S(=O)(O)c1cccc2cccc(Nc3ccccc3)c12 [ANS, 8-anilino-1-naphthalene sulfonic acid, reference compound]",B-phycoerythrin rel. fl. intensity in the presence of PNS or ANS,[1]; [11],0.61
same,effect on fluorescence emission of B-phycoerythrin in solution (in words),[1],quenches the emissions of both phycoerythrins very strongly
same,B-phycoerythrin rel. fl. intensity in the presence of PNS or ANS,[1]; 0.25% PNS or ANS,0.43
same,B-phycoerythrin rel. fl. intensity in the presence of PNS or ANS,[1]; 0.375% PNS or ANS,0.33
same,B-phycoerythrin rel. fl. intensity in the presence of PNS or ANS,[1]; 0.50% PNS or ANS,0.25
same,R-phycoerythrin rel. fl. intensity in the presence of PNS or ANS,[2]; [11],0.72
same,effect on fluorescence emission of R-phycoerythrin in solution (in words),[2],quenches the emissions of both phycoerythrins very strongly
same,R-phycoerythrin rel. fl. intensity in the presence of PNS or ANS,[2]; 0.25% PNS or ANS,0.54
same,R-phycoerythrin rel. fl. intensity in the presence of PNS or ANS,[2]; 0.375% PNS or ANS,0.40
same,R-phycoerythrin rel. fl. intensity in the presence of PNS or ANS,[2]; 0.50% PNS or ANS,0.29
"O=S(=O)(O)c1cccc2cccc(Oc3ccccc3)c12 [PNS, 1-phenoxynaphthalene-8-sulfonic acid]",providing free sulforhodamine 101 (in words),[3]; 0.2% PNS,very effective in providing free sulforhodamine 101
same,% SULFORHODAMINE 101 (PASSED THROUGH FILTER),"[3]; 0.2% PNS, 0% HSA",100%
same,% SULFORHODAMINE 101 (PASSED THROUGH FILTER),"[3]; 0.2% PNS, 0.032% HSA",99%
same,% SULFORHODAMINE 101 (PASSED THROUGH FILTER),"[3]; 0.2% PNS, 0.064% HSA",94%
same,% SULFORHODAMINE 101 (PASSED THROUGH FILTER),"[3]; 0.2% PNS, 0.13% HSA",88%
same,% SULFORHODAMINE 101 (PASSED THROUGH FILTER),"[3]; 0.2% PNS, 0.16% HSA",83%
same,% SULFORHODAMINE 101 (PASSED THROUGH FILTER),"[3]; 0.2% PNS, 0.32% HSA",68%
same,% SULFORHODAMINE 101 (PASSED THROUGH FILTER),"[3]; 0.2% PNS, 0.48% HSA",61%
same,% CONJUGATE (free conjugate in the filtrate),"[4]; 0.2% PNS, 0% plasma",100%
same,% CONJUGATE (free conjugate in the filtrate),"[4]; 0.2% PNS, 20% plasma",94%
same,% CONJUGATE (free conjugate in the filtrate),"[4]; 0.2% PNS, 40% plasma",88%
same,% CONJUGATE (free conjugate in the filtrate),"[4]; 0.2% PNS, 60% plasma",87%
same,% CONJUGATE (free conjugate in the filtrate),"[4]; 0.2% PNS, 75% plasma",89%
same,% CONJUGATE (free conjugate in the filtrate),"[4]; 0.2% PNS, 90% plasma",88%
same,providing free conjugate (in words),"[4]; 0.2% PNS, human plasma",very effective in providing free conjugate
same,providing free dye (in words),[5]; 0.2% PNS,effective in providing free dye and free conjugate
same,DYE (free dye in filtrate),"[5]; 0.2% PNS, 0% HSA",100
same,DYE (free dye in filtrate),"[5]; 0.2% PNS, 0.075% HSA",99
same,DYE (free dye in filtrate),"[5]; 0.2% PNS, 0.15% HSA",97
same,DYE (free dye in filtrate),"[5]; 0.2% PNS, 0.3% HSA",98
same,DYE (free dye in filtrate),"[5]; 0.2% PNS, 0.6% HSA",93
same,DYE (free dye in filtrate),"[5]; 0.2% PNS, 0.9% HSA",92
same,DYE (free dye in filtrate),"[5]; 0.2% PNS, 1.2% HSA",89
same,DYE (free dye in filtrate),"[5]; 0.2% PNS, 1.5% HSA",88
same,providing free conjugate (in words),[6],effective in providing free dye and free conjugate
same,CONJUGATE (free conjugate in filtrate),[6]; 0% HSA,100
same,CONJUGATE (free conjugate in filtrate),[6]; 0.075% HSA,93
same,CONJUGATE (free conjugate in filtrate),[6]; 0.15% HSA,87
same,CONJUGATE (free conjugate in filtrate),[6]; 0.3% HSA,87
same,CONJUGATE (free conjugate in filtrate),[6]; 0.6% HSA,82
same,CONJUGATE (free conjugate in filtrate),[6]; 0.9% HSA,76
same,CONJUGATE (free conjugate in filtrate),[6]; 1.2% HSA,72
same,CONJUGATE (free conjugate in filtrate),[6]; 1.5% HSA,69
same,% Phenytoin (±3) passed through filter,[7]; 0.1% PNS,97.5%
same,providing free phenytoin (in words),[7]; 0.1-0.5% PNS,very effective in providing free phenytoin
same,% Phenytoin (±3) passed through filter,[7]; 0.2% PNS,98.6%
same,% Phenytoin (±3) passed through filter,[7]; 0.3% PNS,98.7%
same,% Phenytoin (±3) passed through filter,[7]; 0.4% PNS,98.6%
same,% Phenytoin (±3) passed through filter,[7]; 0.5% PNS,96.7%
same,B-phycoerythrin rel. fl. intensity in the presence of PNS or ANS,[1]; [11],1.0
same,effect on fluorescence emission of B-phycoerythrin in solution (in words),[1],does not affect the fluorescence emissions
same,B-phycoerythrin rel. fl. intensity in the presence of PNS or ANS,[1]; 0.25% PNS or ANS,1.0
same,B-phycoerythrin rel. fl. intensity in the presence of PNS or ANS,[1]; 0.375% PNS or ANS,1.0
same,B-phycoerythrin rel. fl. intensity in the presence of PNS or ANS,[1]; 0.50% PNS or ANS,1.0
same,R-phycoerythrin rel. fl. intensity in the presence of PNS or ANS,[2]; [11],1.0
same,effect on fluorescence emission of R-phycoerythrin in solution (in words),[2],does not affect the fluorescence emissions
same,R-phycoerythrin rel. fl. intensity in the presence of PNS or ANS,[2]; 0.25% PNS or ANS,0.99
same,R-phycoerythrin rel. fl. intensity in the presence of PNS or ANS,[2]; 0.375% PNS or ANS,0.99
same,R-phycoerythrin rel. fl. intensity in the presence of PNS or ANS,[2]; 0.50% PNS or ANS,0.98
same,solubility in water,"[8]; pH range of interest (above 3, preferably 6 to 8)",soluble in water at the required concentrations
same,solubility in water,"[8]; very low pH, below pH 3",precipitate from solution
same,% PHENOBARBITAL (±3%) (passed through filter),[9]; 0.02% PNS in human plasma,62.7%
same,% PHENOBARBITAL (±3%) (passed through filter),[9]; 0.05% PNS in human plasma,71.1%
same,% PHENOBARBITAL (±3%) (passed through filter),[9]; 0.2% PNS in human plasma,93.0%
same,% PHENOBARBITAL (±3%) (passed through filter),[9]; 0.5% PNS in human plasma,97.0%
same,dissociation of phenobarbital from plasma proteins (in words),"[9]; human, plasma",effective to dissociate phenobarbital from the plasma proteins
"O=C1OC2(c3ccc(O)cc3Oc3cc(O)ccc32)c2ccccc21 [fluorescein, reference compound]",DYE (free dye in filtrate),"[5]; CONTROL (no PNS), 0% HSA, HEPES buffer",100
same,DYE (free dye in filtrate),"[5]; CONTROL (no PNS), 0.075% HSA",83
same,DYE (free dye in filtrate),"[5]; CONTROL (no PNS), 0.15% HSA",69
same,DYE (free dye in filtrate),"[5]; CONTROL (no PNS), 0.3% HSA",52
same,DYE (free dye in filtrate),"[5]; CONTROL (no PNS), 0.5% HSA",40
same,DYE (free dye in filtrate),"[5]; CONTROL (no PNS), 0.6% HSA",35
same,DYE (free dye in filtrate),"[5]; CONTROL (no PNS), 1.0% HSA",24
same,DYE (free dye in filtrate),"[5]; CONTROL (no PNS), 1.2% HSA",20
same,DYE (free dye in filtrate),"[5]; CONTROL (no PNS), 1.5% HSA",17
"CCC1(c2ccccc2)C(=O)NC(=O)NC1=O [phenobarbital, reference compound]",fraction unbound,[10],~0.55
same,fraction unbound at 1 h,[10],0.555
"O=C1NC(=O)C(c2ccccc2)(c2ccccc2)N1 [phenytoin, reference compound]",fraction unbound at 93 µM,[7]; plasma,0.119
"O=S(=O)([O-])c1cc(S(=O)(=O)O)ccc1C1=c2cc3c4c(c2Oc2c1cc1c5c2CCCN5CCC1)CCC[N+]=4CCC3 [sulforhodamine 101, reference compound]",% SULFORHODAMINE 101 (PASSED THROUGH FILTER),"[3]; CONTROL (no PNS), 0% HSA, HEPES buffer, 10.5 µM",100%
same,% SULFORHODAMINE 101 (PASSED THROUGH FILTER),"[3]; CONTROL (no PNS), 0.032% HSA, 10.5 µM",83%
same,% SULFORHODAMINE 101 (PASSED THROUGH FILTER),"[3]; CONTROL (no PNS), 0.064% HSA, 10.5 µM",50%
same,% SULFORHODAMINE 101 (PASSED THROUGH FILTER),"[3]; CONTROL (no PNS), 0.13% HSA, 10.5 µM",32%
same,% SULFORHODAMINE 101 (PASSED THROUGH FILTER),"[3]; CONTROL (no PNS), 0.16% HSA, 10.5 µM",23%
same,% SULFORHODAMINE 101 (PASSED THROUGH FILTER),"[3]; CONTROL (no PNS), 0.32% HSA, 10.5 µM",10%
same,% SULFORHODAMINE 101 (PASSED THROUGH FILTER),"[3]; CONTROL (no PNS), 0.48% HSA, 10.5 µM",6%
"Cn1c(=O)c2[nH]c(CCCC(=O)N3CCN(C(=O)c4ccccc4C4=c5cc6c(cc5Oc5cc7c(cc54)CCCN7CC(=O)NCCS(=O)(=O)O)=[N+](CC(=O)NCCS(=O)(=O)[O-])CCC6)CC3)nc2n(C)c1=O [theophylline-rhodamine conjugate, reference compound]",% CONJUGATE (free conjugate in the filtrate),"[4]; CONTROL (no PNS), 0% plasma, 10 µM",100%
same,% CONJUGATE (free conjugate in the filtrate),"[4]; CONTROL (no PNS), 5% plasma, 10 µM",93%
same,% CONJUGATE (free conjugate in the filtrate),"[4]; CONTROL (no PNS), 20% plasma, 10 µM",82%
same,% CONJUGATE (free conjugate in the filtrate),"[4]; CONTROL (no PNS), 45% plasma, 10 µM",70%
same,% CONJUGATE (free conjugate in the filtrate),"[4]; CONTROL (no PNS), 65% plasma, 10 µM",66%
same,% CONJUGATE (free conjugate in the filtrate),"[4]; CONTROL (no PNS), 85% plasma, 10 µM",57%
same,% CONJUGATE (free conjugate in the filtrate),"[4]; CONTROL (no PNS), 95% plasma in HEPES buffer, 10 µM",50%
